Measured values: patent publication US8563729B2, “Thienopyridone derivatives as AMP-activated protein kinase (AMPK) activators” (Merck Patent GmbH, priority 2008, dated 2013)

Legend:
[1] = molecular target: T1, AMPK protein (recombinant α1β1γ2) (Homo sapiens, UniProt Q13131+Q9Y478); test: AMPK enzymatic activity (Delfia, AMARA peptide substrate); assay type: biochemical; settings: compound 30 μM vs AMP 30 μM; 125 μM ATP; ratio 90% or higher = direct activator
T1 construct: made in house; host or cells: E. coli
Method: The following biological test allows the determination of the efficacy of such compounds of formula (I) onto AMPK protein (recombinant α1β1γ2).
Human recombinant AMPK enzyme was expressed in E. Coli and was reactivated in vitro by LKB1 prior to enzyme activity determination.
AMPK enzyme activities were assayed by using A Delfia technology. AMPK enzyme activities were carried out in microtiter plates (50 mM Hepes buffer, pH 7.4 with 125 μM ATP respectively) in the presence of a synthetic peptide substrate (AMARAASAAALARRR, the “AMARA” peptide) and activators in serial dilutions. Reactions were initiated by the addition of AMPK (50-100 ng). Following mixing, the plates were incubated for 30 min at room temperature. Enzyme activity was assayed by using an anti-phosphoserine antibody to measure the quantity of phosphate incorporated into the AMARAA.
(§1) N°: Number of the molecule
Activity: Ratio between the % of control (basal activity) of compound of formula (I) at 30 μM and the % of control (basal activity) of AMP (natural substrate) at 30 μM.
Compounds of formula (I) in the table II are considered as direct activator of AMPK if the ratio is 90% or higher.

H-2 Kb cells = test: Glucose uptake in H-2 Kb cells (in vitro cellular test); assay type: cell-based, mouse; settings: H-2 Kb cells differentiated in muscle, 4 hours incubation, 2-deoxy-D-[1,2 3H] glucose uptake 10 min
Method: Glucose Uptake in H-2 Kb Cells (In Vitro Cellular Test)
The following cellular test allows the determination of the effect of AMPK activators such as compounds of formula (I) onto glucose uptake in a muscle cellular model.
H-1-2 Kb cells derived from heterozygous H-2 Kb tsA58 transgenic mouse were grown in 24-well in plates coated with matrigel and were cultured at 33° C. for 4 days under permissive conditions, as described previously by Fryer et al. (Diabetes 49 (12): 1978, 2000).
For differentiation in muscle, cells were switched to non-permissive culture conditions (37° C. in the absence of interferon-γ). After 3 days, cells were incubated for 4 hours in DMEM 1 g/l glucose culture medium containing different concentrations of the tested molecules. Then glucose uptake was measured by incubating the cells for 10 min with radiolabelled 2-deoxy-D-[1,2 ^3H] glucose. Glucose uptake was terminated by rapidly washing the plates 2 times with ice-cold NaCl 0.9%. The cells were then solubilized in 0.1N NaOH for 30 min. Radioactivity was determined by liquid scintillation counting.
as §1
Activity (table III): Concentration of compound (I) for a glucose uptake equal or higher to glucose uptake induced by insulin (170 nM)
^++ or **concentration of compound (I) ≦10 micro Molar
^+ or *concentration of compound (I) >10 micro Molar

T1 sequence (Q13131 whole entry): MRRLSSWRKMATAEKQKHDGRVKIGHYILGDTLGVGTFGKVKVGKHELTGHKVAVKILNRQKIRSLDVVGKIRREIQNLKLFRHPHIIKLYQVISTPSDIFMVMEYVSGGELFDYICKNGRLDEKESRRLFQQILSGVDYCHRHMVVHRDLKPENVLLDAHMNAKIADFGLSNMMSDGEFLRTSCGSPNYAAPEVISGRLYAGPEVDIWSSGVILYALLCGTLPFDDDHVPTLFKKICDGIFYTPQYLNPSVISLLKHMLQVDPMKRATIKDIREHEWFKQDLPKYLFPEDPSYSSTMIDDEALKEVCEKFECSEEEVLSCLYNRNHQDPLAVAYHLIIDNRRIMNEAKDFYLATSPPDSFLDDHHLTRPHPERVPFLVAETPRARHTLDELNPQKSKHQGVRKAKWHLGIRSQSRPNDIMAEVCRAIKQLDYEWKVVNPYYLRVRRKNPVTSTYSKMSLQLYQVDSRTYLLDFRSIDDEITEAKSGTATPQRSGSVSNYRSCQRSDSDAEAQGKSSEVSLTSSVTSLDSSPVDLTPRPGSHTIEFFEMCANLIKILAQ
T1 sequence (Q9Y478 whole entry): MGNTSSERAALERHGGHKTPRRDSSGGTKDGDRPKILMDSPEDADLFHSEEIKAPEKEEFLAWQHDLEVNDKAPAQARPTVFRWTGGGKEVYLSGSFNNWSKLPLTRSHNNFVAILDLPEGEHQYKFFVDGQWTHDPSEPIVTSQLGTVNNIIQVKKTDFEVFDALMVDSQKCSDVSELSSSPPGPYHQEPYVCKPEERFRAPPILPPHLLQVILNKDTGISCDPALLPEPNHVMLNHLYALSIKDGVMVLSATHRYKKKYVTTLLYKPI
T1 sequence (Q9UGJ0 whole entry partner): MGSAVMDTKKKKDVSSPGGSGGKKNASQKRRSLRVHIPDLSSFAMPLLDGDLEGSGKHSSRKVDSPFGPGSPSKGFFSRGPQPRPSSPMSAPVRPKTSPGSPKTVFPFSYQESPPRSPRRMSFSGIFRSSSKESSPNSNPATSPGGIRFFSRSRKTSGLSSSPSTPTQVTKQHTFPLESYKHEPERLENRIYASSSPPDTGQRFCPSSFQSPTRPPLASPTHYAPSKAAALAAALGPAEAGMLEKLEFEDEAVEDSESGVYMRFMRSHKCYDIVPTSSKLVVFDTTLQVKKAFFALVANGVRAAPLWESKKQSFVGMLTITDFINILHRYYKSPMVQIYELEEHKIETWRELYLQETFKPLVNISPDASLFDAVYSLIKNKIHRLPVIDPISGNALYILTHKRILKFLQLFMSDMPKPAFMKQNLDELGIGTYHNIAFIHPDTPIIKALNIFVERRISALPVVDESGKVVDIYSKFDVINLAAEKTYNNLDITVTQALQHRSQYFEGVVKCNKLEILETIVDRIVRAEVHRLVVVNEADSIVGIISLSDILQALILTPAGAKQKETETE

SMILES	activity: Ratio between the % of control (basal activity) of compound of formula (I) at 30 μM and the % of control (basal activity) of AMP at 30 μM [1]	Activity (table III): Concentration of compound (I) for a glucose uptake equal or higher to glucose uptake induced by insulin (170 nM) (H-2 Kb cells)
O=c1[nH]c2sc(Cl)c(-c3ccc(F)c(F)c3)c2c(O)c1-c1ccccc1 [Compound 100]	103%	** (^++ or **concentration of compound (I) ≦10 micro Molar)
Cc1ccc(-c2c(Cl)sc3[nH]c(=O)c(-c4ccccc4)c(O)c23)c(O)c1 [Compound 104]	236%	* (^+ or *concentration of compound (I) >10 micro Molar)
O=c1[nH]c2sc(Cl)c(-c3cc(F)ccc3O)c2c(O)c1-c1ccccc1 [Compound 108]	305%	* (^+ or *concentration of compound (I) >10 micro Molar)
O=c1[nH]c2sc(Cl)c(-c3ccc(O)c(F)c3)c2c(O)c1-c1ccccc1 [Compound 109]	200%	** (^++ or **concentration of compound (I) ≦10 micro Molar)
O=c1[nH]c2sc(Cl)c(-c3ccc(F)cc3O)c2c(O)c1-c1ccccc1 [Compound 111]	136%	* (^+ or *concentration of compound (I) >10 micro Molar)
COc1ccc(-c2c(Cl)sc3[nH]c(=O)c(-c4ccccc4)c(O)c23)c(F)c1 [Compound 115]	118%	** (^++ or **concentration of compound (I) ≦10 micro Molar)
O=c1[nH]c2sc(Cl)c(-c3ccccc3F)c2c(O)c1-c1ccccc1 [Compound 119]	101%	* (^+ or *concentration of compound (I) >10 micro Molar)
O=c1[nH]c2sc(Cl)c(-c3ccccc3O)c2c(O)c1-c1ccccc1 [Compound 121]	143%	* (^+ or *concentration of compound (I) >10 micro Molar)
Cc1cccc(-c2c(Cl)sc3[nH]c(=O)c(-c4ccccc4)c(O)c23)c1 [Compound 125]	101%	** (^++ or **concentration of compound (I) ≦10 micro Molar)
O=c1[nH]c2sc(Cl)c(-c3cccc(F)c3)c2c(O)c1-c1ccccc1 [Compound 126]	98%	* (^+ or *concentration of compound (I) >10 micro Molar)
CCOc1cccc(-c2c(Cl)sc3[nH]c(=O)c(-c4ccccc4)c(O)c23)c1 [Compound 127]	122%	* (^+ or *concentration of compound (I) >10 micro Molar)
COc1cccc(-c2c(Cl)sc3[nH]c(=O)c(-c4ccccc4)c(O)c23)c1 [Compound 128]	181%	* (^+ or *concentration of compound (I) >10 micro Molar)
COc1ccc(-c2c(Cl)sc3[nH]c(=O)c(-c4cccc(C#N)c4)c(O)c23)cc1 [Compound 129]	102%	** (^++ or **concentration of compound (I) ≦10 micro Molar)
N#Cc1cccc(-c2c(O)c3c(-c4ccc(F)cc4)c(Cl)sc3[nH]c2=O)c1 [Compound 131]	331%	* (^+ or *concentration of compound (I) >10 micro Molar)
O=c1[nH]c2sc(Cl)c(-c3ccc4ccccc4c3O)c2c(O)c1-c1ccccc1 [Compound 136]	488%	** (^++ or **concentration of compound (I) ≦10 micro Molar)
O=c1[nH]c2sc(Cl)c(-c3ccc4ccccc4c3)c2c(O)c1-c1ccccc1 [Compound 137]	129%	* (^+ or *concentration of compound (I) >10 micro Molar)
O=c1[nH]c2sc(Cl)c(-c3ccc(O)cc3)c2c(O)c1-c1ccccc1 [Compound 138]	114%	** (^++ or **concentration of compound (I) ≦10 micro Molar)
COc1ccc(-c2c(Cl)sc3[nH]c(=O)c(-c4ccccc4)c(O)c23)cc1 [Compound 139]	114%	** (^++ or **concentration of compound (I) ≦10 micro Molar)
O=c1[nH]c2sc(Cl)c(-c3ccc(F)cc3)c2c(O)c1-c1ccccc1 [Compound 140]	123%	** (^++ or **concentration of compound (I) ≦10 micro Molar)
O=c1[nH]c2sc(Cl)c(-c3ccccc3)c2c(O)c1-c1cccc(C(F)(F)F)c1 [Compound 143]	99%	* (^+ or *concentration of compound (I) >10 micro Molar)
O=c1[nH]c2sc(Cl)c(-c3ccccc3)c2c(O)c1-c1cccc(O)c1 [Compound 148]	121%	** (^++ or **concentration of compound (I) ≦10 micro Molar)
COc1cccc(-c2c(O)c3c(-c4ccccc4)c(Cl)sc3[nH]c2=O)c1 [Compound 149]	120%	** (^++ or **concentration of compound (I) ≦10 micro Molar)
O=c1[nH]c2sc(Cl)c(-c3ccccc3)c2c(O)c1-c1ccc(O)cc1 [Compound 156]	95%	** (^++ or **concentration of compound (I) ≦10 micro Molar)
